Results published in patent publication US12128041B2, “Nanoparticles for delivering drug, whose surface is modified with peptide for targeting brain cancer, preparation method thereof and use thereof” (UNIVERSITY-INDUSTRY COOPERATION GROUP OF KYUNG HEE …, priority 2020, dated 2024).
Read-outs that look alike come from different tables or passages of the source. Where a SMILES comes first, the peptide text is derived from it.

What was measured:
[1] = In vivo distribution of TAMRA-labeled SIWV peptide in healthy mice by fluorescence signal; details: tail vein injection
[2] = test system: U87MG cells; experiment: Intracellular uptake in U87MG cells by confocal microscope; type: cell-based, human; details: cultured for 6 hours
Protocol: (§1) The present inventor conducted the following experiments to confirm the intracellular uptake efficiency and cytotoxicity of SIWV-pSiNP(SN-38). Specifically, U87MG cells were seeded into 96-well plates at a density of 10,000 cells/well and cultured under the conditions of 5% CO2 and 37° C. for 24 hours. Thereafter, the cells were treated with 100 μL of each of the SN-38 drug alone, pSiNPs, pSiNP(SN-38) and SIWV-pSiNP(SN-38) nanoparticles at a concentration of 6.25, 12.5, 25, 50, and 100 μM, respectively, and cultured for 6 hours. After 6 hours, in order to confirm the intracellular uptake efficiency, cell nuclei were stained by treating the cells with a 4′,6-diamino-2-phenylindole (DAPI) reagent for 10 minutes, and cell membranes were then stained by treating the cells with a CellMask™ Deep Red Plasma membrane stain reagent for 1 hour. After staining, the cells were washed three times with PBS and treated with 4% paraformaldehyde for 20 minutes to fix the cells, and then the cells were observed under a confocal microscope.

[3] = test system: U87MG cells; experiment: Cytotoxicity in U87MG cells, WST-1 cell viability; type: cell-based, human; details: 6 hours
Protocol: as §1
Meanwhile, after the cells were treated with SN-38 and each of the nanoparticles as described above and cultured for 6 hours, 10 μL of a 10% WST-1 reagent was added to each well and the cells were cultured for 2 hours. Thereafter, cell viability was analyzed by measuring the absorbance at 450 nm using a microplate reader, and the cell viability was analyzed using a relative percentage for U87MG cells not treated with nanoparticles.

[4] = mouse, in vivo
[5] = Passage through the blood-brain barrier, confocal microscopy of brain tissue sections; type: in vivo, mice; details: brain removed 3 hours after tail vein injection of SIWV-TAMRA

CN(C)c1ccc2c(-c3ccccc3C(=O)[O-])c3ccc(N(C)C)cc3[o+]c2c1 [TAMRA, tetramethylrhodamine]
time of excretion from the body [1]: ≤ 2 h

CCc1c2c(nc3ccc(O)cc13)-c1cc3c(c(=O)n1C2)COC(=O)[C@]3(O)CC [SN-38, 7-ethyl-10-hydroxy-camptothecin]
intracellular uptake [2]: intracellular uptake did not occur
cytotoxicity (toxicity of U87MG cells) ([3]; 6.5 μM): 12.4%
cytotoxicity ([3]; 100 μM): 55.4%
concentration dependence of toxicity ([3]; U87MG cells, 6.25 to 100 μM): increased toxicity as the treatment concentration was increased

CC[C@H](C)[C@H](NC(=O)[C@@H](N)CO)C(=O)N[C@@H](Cc1c[nH]c2ccccc12)C(=O)N[C@H](C(=O)O)C(C)C [SIWV peptide] (H-SIWV-OH; N-terminus and C-terminus assumed)
time of excretion from the body [4]: 24 h
passage through the blood-brain barrier [5]: passed through the blood-brain barrier
